The values below come from patent US11485732B2, “Compounds and uses thereof” (Foghorn Therapeutics Inc., priority 2020, dated 2022).

As a reminder, the IC50 is the concentration that inhibits the measured activity by half. The low end stands for inhibition by little substance, the high end for a need for much substance.

For series [1], the system named is uveal melanoma and hematologic cancer cell lines versus the other tested cell lines. Briefly: Growth of uveal melanoma, hematological and other cancer cell lines, day 3 and day 7, Cell-titer glo (Example 7). The format is cell-based.
The subject of series [2] is 92-1 uveal melanoma cells. In words: Uveal melanoma tumor growth inhibition in vivo (Example 18). Also noted: species or system Nude mice. As to conditions: once daily oral gavage, increasing doses, 3 weeks.
For series [3], the target named is BRM (Homo sapiens, UniProt P51531). In words: biochemical.
The nature of series [4]: Body weight change of tumor-bearing mice (Example 18). The series is classed as in vivo. The settings on record: all treatments, once daily oral gavage, 3 weeks.
In series [5] the test system is Uveal melanoma cell lines (92-1, MEL202, MP41, MP38, MP46), prostate cancer cells (22RV1), acute leukemia cells (EOL1, THP1), and histocytic lymphoma cells …. In words: 3-day growth inhibition, Cell-titer glow, all cell lines (Example 17). The series is classed as cell-based. As to conditions: 0 to 2 μM (uveal melanoma) or 0 to 1 μM (other cell lines), 3 days.
Series [6] in a line: Body weight change of tumor-bearing mice (Example 16). The format is in vivo. The settings on record: all treatments, once daily oral gavage, 3 weeks.
Series [7] deals with parental MP41 cells. In words: 7-day growth inhibition assay, parental cells (Example 14).
Series [8] has as its system uveal melanoma, hematologic cancer, prostate cancer, breast cancer, and Ewing's sarcoma cell lines versus the other tested cell lines. The settings on record: 0 to 10 μM; day 3 and day 7.
Series [9] concerns Uveal melanoma cell lines (92-1, MP41, MP38, MP46) and non-small cell lung cancer cells (NCIH1299). Briefly: 3-day growth inhibition, Cell-titer glow (Example 12). The settings on record: 0 to 10 μM, 3 days. The format is cell-based.
In series [10] the test system is PKC inhibitor (PKCi)-resistant MP41 uveal melanoma cells. In words: 7-day growth inhibition assay, PKC inhibitor-resistant cells (Example 14).

Chain of BRM (P51531 whole entry): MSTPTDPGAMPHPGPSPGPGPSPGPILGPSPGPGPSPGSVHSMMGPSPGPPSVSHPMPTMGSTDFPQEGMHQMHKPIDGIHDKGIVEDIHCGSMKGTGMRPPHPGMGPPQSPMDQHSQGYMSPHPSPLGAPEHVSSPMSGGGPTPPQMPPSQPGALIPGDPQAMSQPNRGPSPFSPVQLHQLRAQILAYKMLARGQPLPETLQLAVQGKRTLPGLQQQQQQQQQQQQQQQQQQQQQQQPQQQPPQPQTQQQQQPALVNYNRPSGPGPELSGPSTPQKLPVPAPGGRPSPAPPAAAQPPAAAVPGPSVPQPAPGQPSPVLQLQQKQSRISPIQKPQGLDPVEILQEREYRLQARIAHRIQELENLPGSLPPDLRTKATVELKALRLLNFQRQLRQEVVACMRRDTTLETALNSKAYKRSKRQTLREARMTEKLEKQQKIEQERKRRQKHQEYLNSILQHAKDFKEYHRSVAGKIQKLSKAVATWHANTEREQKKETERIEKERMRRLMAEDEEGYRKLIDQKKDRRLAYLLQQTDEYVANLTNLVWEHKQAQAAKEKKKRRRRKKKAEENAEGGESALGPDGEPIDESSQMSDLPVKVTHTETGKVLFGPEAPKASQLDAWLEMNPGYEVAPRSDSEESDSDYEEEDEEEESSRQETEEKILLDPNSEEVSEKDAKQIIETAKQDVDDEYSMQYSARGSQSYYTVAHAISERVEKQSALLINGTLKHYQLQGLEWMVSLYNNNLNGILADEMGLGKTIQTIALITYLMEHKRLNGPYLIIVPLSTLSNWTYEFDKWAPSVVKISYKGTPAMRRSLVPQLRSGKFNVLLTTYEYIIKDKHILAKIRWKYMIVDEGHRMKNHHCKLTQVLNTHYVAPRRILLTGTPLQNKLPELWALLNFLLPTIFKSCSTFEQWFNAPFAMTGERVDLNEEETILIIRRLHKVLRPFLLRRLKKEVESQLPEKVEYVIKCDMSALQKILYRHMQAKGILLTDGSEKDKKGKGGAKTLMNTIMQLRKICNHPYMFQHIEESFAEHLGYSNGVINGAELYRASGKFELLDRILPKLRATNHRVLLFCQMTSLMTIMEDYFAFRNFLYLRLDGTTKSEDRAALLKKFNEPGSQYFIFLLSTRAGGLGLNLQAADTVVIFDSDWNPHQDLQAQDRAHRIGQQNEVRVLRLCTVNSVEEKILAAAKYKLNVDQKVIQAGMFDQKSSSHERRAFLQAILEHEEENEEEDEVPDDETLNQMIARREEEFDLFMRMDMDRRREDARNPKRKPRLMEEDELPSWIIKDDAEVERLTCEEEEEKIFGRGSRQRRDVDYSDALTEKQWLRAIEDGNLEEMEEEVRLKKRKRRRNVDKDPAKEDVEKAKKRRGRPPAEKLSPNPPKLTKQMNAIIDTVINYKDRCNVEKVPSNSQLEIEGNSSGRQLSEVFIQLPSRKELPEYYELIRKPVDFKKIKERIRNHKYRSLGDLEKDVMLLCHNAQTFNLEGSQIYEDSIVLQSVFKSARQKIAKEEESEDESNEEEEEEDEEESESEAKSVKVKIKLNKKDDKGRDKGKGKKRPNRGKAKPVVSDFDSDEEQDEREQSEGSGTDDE

For the molecule `CSCC[C@H](NC(=O)c1ccc(N)cc1)C(=O)Nc1nc(-c2cccc(-c3ccncc3)c2)cs1` [Compound A], the “sensitivity of cell lines to growth inhibition (GI50, FIG. 1)” value in series [1] (0 to 10 μM, day 3 and day 7) is listed as “more sensitive to BRG1/BRM inhibition than the other tested cell lines”. The “duration of growth inhibition” value in series [1] (uveal melanoma and hematologic cancer cell lines) is listed as “maintained through day 7”.

For the molecule `COC[C@H](NC(=O)c1ccn(S(C)(=O)=O)c1)C(=O)Nc1nc(-c2cccc(N3C[C@@H](C)O[C@@H](C)C3)n2)cs1` [N—((S)-1-((4-(6-(cis-2,6-dimethylmorpholino)pyridin-2-yl)thiazol-2-yl)amino)-3-methoxy-1-oxopropan-2-yl)-1-(methylsulfonyl)-1H-pyrrole-3-carboxamide], in series [2], the “tumor growth inhibition (FIG. 15)” value is “tumor growth inhibition in a dose-dependent manner”. The IC50 in series [3] was determined as 3.9 nM. Moreover, the “tolerability based on % body weight change (FIG. 16)” value in [4] is given as “well tolerated”. Also, the “growth inhibition (FIG. 14)” value in [5] was “potent growth inhibition in all the cell lines”.

`[2H]C([2H])([2H])OC([2H])([2H])[C@H](NC(=O)c1ccn(S(C)(=O)=O)c1)C(=O)Nc1nc(-c2cccc(N3C[C@@H](C)O[C@@H](C)C3)n2)cs1` [N—((S)-1-((4-(6-(cis-2,6-dimethylmorpholino)pyridin-2-yl)thiazol-2-yl)amino)-3-(methoxy-d3)-1-oxopropan-2-yl-3,3-d2)-1-(methylsulfonyl)-1H-pyrrole-3-carboxamide] came in with an IC50 in series [3] of 4.6 nM.

Regarding `C[C@@H]1CN(c2cccc(-c3csc(NC(=O)CNC(=O)c4ccn(C(C)(C)C)c4)n3)n2)C[C@H](C)O1` [Compound C], the “tolerability, body weight change (FIG. 13)” value in series [6] was “well tolerated with no body weight loss observed”.

Take `[2H]C([2H])([2H])OC([2H])([2H])[C@@H](NC(=O)c1ccn(S(C)(=O)=O)c1)C(=O)Nc1nc(-c2cccc(N3C[C@@H](C)O[C@@H](C)C3)n2)cs1` [N—((R)-1-((4-(6-(cis-2,6-dimethylmorpholino)pyridin-2-yl)thiazol-2-yl)amino)-3-(methoxy-d3)-1-oxopropan-2-yl-3,3-d2)-1-(methylsulfonyl)-1H-pyrrole-3-carboxamide]: in [3], the IC50 is 443 nM.

Take `CSCC[C@H](NC(=O)c1ccn(S(C)(=O)=O)c1)C(=O)Nc1nc(-c2cccc(-c3ccncc3)c2)cs1` [Compound B]: the “growth inhibition, parental MP41 cell line (FIG. 10)” value in [7] is reported as “strong growth inhibition”. In series [8], the “sensitivity of cell lines to growth inhibition (FIG. 4)” value was “more sensitive to BRG1/BRM inhibition than the other tested cell lines”. The “growth inhibition (FIG. 6)” value in series [9] is on record as “potent growth inhibition in the cell lines”.

On to `CC1(N)CCN(c2cccnc2NC(=O)c2nc(-c3ncccc3C(F)(F)F)cnc2N)CC1` [LXS196], for which the “sensitivity of PKCi-resistant cells relative to parental MP41 cells (FIG. 9, FIG. 10)” value in series [10] is recorded as “could tolerate growth at higher concentrations of LXS196 than could the parental MP41 cell line”.
